Laboratory results reported in publication PMC9227536, “Prediction of Pharmacokinetics of IDP-73152 in Humans Using Physiologically-Based Pharmacokinetics” (Pharmaceutics, 2022).

Key:
[1] = PBPK model prediction, dogs
From the text: In this study, the PBPK model involving ten tissues (i.e., adipose tissue, brain, heart, kidney, liver, lung, muscle, skin, spleen, and testis (Figure 2; see Appendix A for detailed mathematical descriptions)) was considered to be applicable for the description of IDP-73152 PK in rats, mice, dogs, and humans. Physiological variables were obtained from the literature; they are summarized in Supplementary Table S1.
For the estimation of the volume of the distribution of IDP-73512 in rats, the steady-state volume of distribution (Vss) was calculated using the following equation [30]:(10) Vss=VP+Vrbc×EP+∑VT,i×KP,ss,i, where Vp, Vrbc, and VT,i are the volumes of plasma, red blood cells, and tissues, respectively. The erythrocyte-to-plasma partition coefficient (EP), is calculated by EP=1+(BP−1)/Hematocrit . The KP,ss for each tissue obtained from Equation (8) was applied for Equation (10). For the case of non-eliminating organs, the KP,ss was regarded as the tissue-to-plasma partition coefficient (KP) in PBPK equations (Appendix A). For the case of the liver—i.e., the eliminating organ—the KP,ss (KP,ss,LI) had to be corrected to account for the equilibrium being altered by the elimination. Thus, a PBPK-operative KP for liver (KP,LI) was calculated using the following equation [31]:(11) KP,LI=KP,ss,LI/(1−ER), where ER is the hepatic extraction ratio of the compound (i.e., CLh/(QLI·BP)). In this study, a compartmental absorption and transit (CAT) model consisting of stomach and five intestinal segments was considered for the description of the intestinal absorption kinetics of IDP-73152 in animals and humans. We assumed that the initial compartment denoted the stomach (Equation (12)), and the subsequent three compartments represented the small intestine and two additional compartments for the large intestine (i.e., a total of six compartments, with absorption occurring in the five intestinal compartments) (Equation (13)). The differential equations describing the rate of drug absorption and transit in the gastrointestinal tract can be written as:
For the intestine, viz. i = 1~5:(13) dMi/dt=Kt,i−1×Mi−1−(Kt,i+ka,i)×Mi, where Ms is the amount of drug in the stomach; Mi is the amount of drug in the i-th intestinal segment; Ks, Kt,i, and ka,i are the rate constants of gastric emptying, intestinal transit, and the segmental absorption rate, respectively. In Equation (13) at i = 1, Kt,0 and M0 represent Ks and Ms, respectively. […] The absorption rate constant in the intestinal segments in humans, ka,i,human, was assumed to be identical along the segments and calculated as follows: first, Peff was empirically estimated from the Caco-2 cell permeability (Papp):(14) LogPeff=0.4926×LogPapp−0.1454 […]

[2] = test system: vancomycin-resistant Enterococcus faecium; details: infected mice, twice-a-day dosing; cited from earlier work
[3] = Blood partitioning (LC-MS/MS-based depletion method), human; format: in vitro ADME; details: whole blood, humans blood, 0.3, 1, 3 μM, read-out: BP (blood-to-plasma concentration ratio)
Experimental: In this study, the partitioning of IDP-73152 in blood samples obtained from mice, rats, dogs, and humans was determined using the LC-MS/MS-based depletion method with slight modifications. DP-73152 was added to an aliquot (1 mL) of blank blood or plasma at a final concentration of 0.3, 1, or 3 μM. The mixture was incubated at 37 °C in a water bath for 60 min. After the incubation, the plasma was separated by centrifugation of the blood samples for 5 min at 10,000× g/4 °C and stored at -80 °C until analysis. The blood-to-plasma concentration ratio (BP) was calculated using the equation:(3) BP=[…], where […] is the concentration of the compound at the corresponding blood concentration in the plasma, and CPL is the concentration from the plasma sample separated from the incubated blood.

[4] = Stability in plasma, human; format: in vitro ADME; details: humans plasma
Experimental: The unbound fractions of IDP-73152 in various matrices were measured according to the manufacturer's instructions for the rapid equilibrium dialysis (RED) device (ThermoFisher Scientific, Waltham, MA, USA). Briefly, IDP-73152 was added to the plasma or the microsomal/hepatocyte incubation buffer from various species (i.e., mouse, rat, dog, and human for microsomal incubation; rat for hepatocyte incubation) to obtain final concentrations of the compound at 0.3, 1, and 3 μM. After the membrane insert was placed in the RED plate, the solution containing IDP-73152 was added (400 μL) to the sample chamber, and the dialysis buffer (600 μL) was added to the buffer chamber. The RED plate was sealed with parafilm and then incubated at 37 °C in the orbital shaker (Lab Companion, Daejeon, Korea) at 100 rpm for 5 h. […] The IDP-73152 concentration in the buffer/sample chambers (i.e., CBuffer Chamber and CSample Chamber) was determined by an assay. Thus, the fraction unbound was defined as:(2) % Fraction unbound=(CBuffer Chamber/CSample Chamber)×100% When necessary, the stability of IDP-73152 in the matrix was also determined at 5 h. […] Accordingly, the kinetics of IDP-73152 instability were determined in the rat blood at a final concentration of 0.3 μM. […]

Q: Which results are given for CC(C)(C)[C@H](NC(=O)[C@H](CC1CCCC1)CN(O)C=O)C(=O)N1CCC(NCc2cc(F)c(F)cc2F)CC1 [IDP-73152]?
A: AUC ratio ([1]; intravenous 10 mg/kg): 1.13; Cmax ratio without the scaling (SF) ([1]; oral): 0.760; AUC ratio ([1]; oral 20 mg/kg): 1.08; Cmax ratio ([1]; oral 20 mg/kg): 0.832; ED50 (oral dose at which the survival rate was 50%) [2]: 13.3 mg/kg; blood plasma ratio at 60 min [3]: 1.24 ± 0.08; percentage remaining in plasma at 5 h ([4]; 5 h, 37 °C): 98.2 ± 3.4%; stability in plasma ([4]; preliminary study): stable
